The source of these data is ChEMBL document CHEMBL1128992, “A Non-peptidic photoactivatable antagonist for mapping the antagonist binding site of the tachykinin NK2 receptor” (Bioorg Med Chem Lett, 1996).

This assay deals with T1, Substance-K receptor (Homo sapiens, UniProt P21452).
T1 sequence (P21452 whole entry): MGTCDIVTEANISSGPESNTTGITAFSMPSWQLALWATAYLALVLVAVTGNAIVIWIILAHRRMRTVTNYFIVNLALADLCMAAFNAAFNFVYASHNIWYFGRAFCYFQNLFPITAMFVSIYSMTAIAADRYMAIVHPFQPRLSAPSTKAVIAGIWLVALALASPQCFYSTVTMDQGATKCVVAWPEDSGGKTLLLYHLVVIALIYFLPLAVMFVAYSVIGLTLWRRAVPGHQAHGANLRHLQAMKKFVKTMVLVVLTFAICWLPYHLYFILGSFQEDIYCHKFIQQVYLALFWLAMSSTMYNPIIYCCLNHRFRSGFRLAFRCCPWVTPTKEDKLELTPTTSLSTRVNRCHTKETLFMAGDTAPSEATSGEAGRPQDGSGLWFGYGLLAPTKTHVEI
The assay is described as follows: Binding affinity was determined against human NK2 receptor in CHO cells using [125I]neurokinin A as radioligand. Format: cell-based.

The structures appear in SMILES notation.

On to `CN(CC(CCN1CCC(O)(c2ccccc2)CC1)c1ccc(Cl)c(Cl)c1)C(=O)c1cccc(C2(C(F)(F)F)N=N2)c1` (racemic), for which the IC50 was 6.7 nM. With `CC(=O)NC1(c2ccccc2)CCN(CC[C@H](CN(C)C(=O)c2ccccc2)c2ccc(Cl)c(Cl)c2)CC1` (racemic) [SAREDUTANT], the IC50 was found to be 0.8 nM.

One may read the IC50 as the point on the concentration scale where inhibition reaches its midpoint. Higher therefore signals lower potency.
